From ChEMBL document CHEMBL4483862, “Open-source discovery of chemical leads for next-generation chemoprotective antimalarials” (2018)

System: Plasmodium berghei
Assay: Luciferase/luciferin-expressing antifolate-resistant parasites were used to infect a culture of HepG2 cells that were pre-incubated with compounds. Infected hepatocytes emit light due to the luciferase reaction. Assay results are presented as the percent inhibition of light emission compared to control. […]
Format: functional
Settings: sporozoite; for IC90: read-out: LUCIFERASE INFECTION ASSAY - IC90
[1] = read-out: LUCIFERASE INFECTION ASSAY - IC50

| SMILES | IC90 | IC50 [1] | further results |
| --- | --- | --- | --- |
| O=C(Nc1ccc(-c2nc3ccccc3[nH]2)cc1)c1cccc(N2CCCS2(=O)=O)c1 | 9.62 µM |  | IC50 (PBLUC_HILL_SLOPE 5.48, 3.67, PBLUC_R_SQUARED 0.355, 0.637, read-out: LUCIFERASE INFECTION ASSAY - IC50): 5.88 µM |
| O=C1CCC(c2ccccc2)C(=O)/C1=N\Nc1ccc(Cl)cc1 (stereo not drawn) | > 10.1 µM | > 10.1 µM |  |
| CSc1nnnn1-c1cccc(NC(=O)c2cc(-c3cccs3)nc3c2cnn3C(C)C)c1 | > 10 µM |  | IC50 (PBLUC_HILL_SLOPE 6.42, PBLUC_R_SQUARED 0.137, read-out: LUCIFERASE INFECTION ASSAY - IC50): > 10 µM |
| CCCN(CC(=O)Nc1cc(-c2ccccc2)sc1C(=O)OCC)Cc1nnc(-c2ccco2)o1 | > 10 µM |  | IC50 (PBLUC_HILL_SLOPE 3.67, PBLUC_R_SQUARED 0.341, read-out: LUCIFERASE INFECTION ASSAY - IC50): 7.32 µM |
| O=C(CSc1nnc(-c2ccc(Cl)cc2Cl)n1-c1ccc(F)c(Cl)c1)NCCC1=CCCCC1 | > 10 µM |  | IC50 (FFLUC_HILL_SLOPE 2.41, FFLUC_R_SQUARED 0.138, HEPG2TOX_HILL_SLOPE 7.97, HEPG2TOX_R_SQUARED 0.0659, PBLUC_HILL_SLOPE 2.87, PBLUC_R_SQUARED 0.0345, read-out: LUCIFERASE INFECTION ASSAY - IC50): 8.61 µM |
| c1ccc2cc(-c3cc4ccccc4[nH]3)ccc2c1 | > 13.6 µM |  | IC50 (HEPG2TOX_HILL_SLOPE 2.23, HEPG2TOX_R_SQUARED 0.773, PBLUC_HILL_SLOPE 13.6, PBLUC_R_SQUARED 0.0646, read-out: LUCIFERASE INFECTION ASSAY - IC50): 12.2 µM |
| CNC(=O)c1ccc(CN(Cc2ccco2)c2nc(C(F)(F)F)nc3ccccc23)cc1 | 3.56 µM |  | IC50 (HEPG2TOX_HILL_SLOPE 6.45, HEPG2TOX_R_SQUARED 0.103, PBLUC_HILL_SLOPE 3.77, PBLUC_R_SQUARED 0.847, read-out: LUCIFERASE INFECTION ASSAY - IC50): 1.99 µM |
| O=C(Nc1ccc(Cl)cc1)N1CCCN(Cc2ccc(Br)cc2F)CC1 | > 7.49 µM |  | IC50 (PBLUC_HILL_SLOPE 1.86, PBLUC_R_SQUARED 0.575, read-out: LUCIFERASE INFECTION ASSAY - IC50): 2.95 µM |
| CCNC(=S)N/N=C/c1cc(Cl)cc(Cl)c1O | > 11.3 µM |  | IC50 (PBLUC_HILL_SLOPE 1.17, PBLUC_R_SQUARED 0.411, read-out: LUCIFERASE INFECTION ASSAY - IC50): > 11.3 µM |
| CCc1cccc2c(C(=O)CN3CCC(C(=O)Nc4ccc5c(c4)OCO5)CC3)c[nH]c12 | > 10 µM | > 10 µM |  |
| COc1ccc(C2CCCCCN2C(=O)CCc2c(C)[nH]c(-c3ccccc3)nc2=O)cc1 (stereo not drawn) | 3.45 µM |  | IC50 (PBLUC_HILL_SLOPE 57.7, PBLUC_R_SQUARED 0.487, read-out: LUCIFERASE INFECTION ASSAY - IC50): 3.32 µM |
| CCN(CC)C(=O)CSc1nnc2nnc3cc(C)ccc3n12 | > 9.99 µM | > 9.99 µM |  |
| O=C(Nc1ccc(CNC(=O)C2Cc3cc(Cl)ccc3O2)cc1)c1ccco1 (stereo not drawn) | > 10 µM | > 10 µM |  |
| COc1ccc(Nc2nc(S(=O)(=O)c3ccc(C)cc3)c(Cl)s2)cc1 | > 10 µM |  | IC50 (HEPG2TOX_HILL_SLOPE 11.4, HEPG2TOX_R_SQUARED 0.576, read-out: LUCIFERASE INFECTION ASSAY - IC50): > 10 µM |
| CCOC(=O)c1c[nH]c2ccc(OC(F)(F)F)cc2c1=O | > 11 µM | > 11 µM |  |
| CC(C)OCCCNCC(O)COCc1ccccc1Cl (stereo not drawn) | > 10 µM | > 10 µM |  |
| Cc1ccsc1C(=O)OCC(=O)Nc1cc(C(C)(C)C)no1 | > 10 µM | > 10 µM |  |
| COc1ccc2c(=O)c(C(=O)N(C)Cc3ccc(F)c(F)c3)c[nH]c2c1 | 4.7 µM |  | IC50 (PBLUC_HILL_SLOPE 1.79, PBLUC_R_SQUARED 0.658, read-out: LUCIFERASE INFECTION ASSAY - IC50): 1.38 µM |
| CC1(C(=O)Nc2cnc3ccccc3c2)CCN1Cc1ccccc1Cl (stereo not drawn) | > 9.02 µM |  | IC50 (HEPG2TOX_HILL_SLOPE 0.189, HEPG2TOX_R_SQUARED 0.318, read-out: LUCIFERASE INFECTION ASSAY - IC50): > 9.02 µM |
| Cc1ccc(-c2nc3nc(N)n(C)c(=O)c3[nH]c2=O)cc1 | > 10 µM | > 10 µM |  |
| O=C(c1ccco1)N1CCc2nc(NCc3cccc(Cl)c3)ncc2C1 | 8.86 µM |  | IC50 (PBLUC_HILL_SLOPE 14.7, PBLUC_R_SQUARED 0.24, read-out: LUCIFERASE INFECTION ASSAY - IC50): 7.63 µM |
| CN(C)c1nc2cc(C(=O)Nc3ccccc3OC(F)F)sc2n1-c1ccccc1 | 2.47 µM |  | IC50 (HEPG2TOX_HILL_SLOPE 0.955, HEPG2TOX_R_SQUARED 0.898, PBLUC_HILL_SLOPE 1.96, PBLUC_R_SQUARED 0.521, read-out: LUCIFERASE INFECTION ASSAY - IC50): 0.803 µM |

| SMILES | IC90 | IC50 [1] | further results |
| --- | --- | --- | --- |
| CC1CC1c1ccc(/C=C2\C(=O)Nc3cc(Cl)ccc32)o1 (stereo not drawn) | > 10 µM |  | IC50 (HEPG2TOX_HILL_SLOPE 10.3, HEPG2TOX_R_SQUARED 0.792, PBLUC_HILL_SLOPE 17.7, PBLUC_R_SQUARED 0.192, read-out: LUCIFERASE INFECTION ASSAY - IC50): 9.66 µM |
| COc1ccc(C)cc1C(C)NC(=O)c1cnn(Cc2ccccc2)c1 (stereo not drawn) | > 10 µM | > 10 µM |  |
| CCOc1cc(/C=C/C(=O)c2ccc(-c3ccccc3)cc2)ccc1OCC(=O)N(C)C | > 10 µM |  | IC50 (HEPG2TOX_HILL_SLOPE 0.976, HEPG2TOX_R_SQUARED 0.779, read-out: LUCIFERASE INFECTION ASSAY - IC50): > 10 µM |
| CCOc1ccc(C=C(c2nc3ccccc3s2)c2nc3ccccc3s2)c(O)c1 | > 10 µM | 6.72 µM |  |
| CCC(C(=O)Nc1nc2ccccn2c1C(=O)NC1CCCCC1)c1ccccc1 (stereo not drawn) | > 8.16 µM |  | IC50 (PBLUC_HILL_SLOPE 15.5, PBLUC_R_SQUARED 0.112, read-out: LUCIFERASE INFECTION ASSAY - IC50): 7.66 µM |
| OCc1ccc(-c2cnc3cnc(/C=C/c4ccccc4)cn23)cc1 | 0.659 µM |  | IC50 (HEPG2TOX_HILL_SLOPE 0.99, HEPG2TOX_R_SQUARED 0.698, PBLUC_HILL_SLOPE 2.37, PBLUC_R_SQUARED 0.796, read-out: LUCIFERASE INFECTION ASSAY - IC50): 0.261 µM |
| OCCCNc1nn2c(-c3cccc(F)c3)cnc2s1 | > 11.3 µM | > 11.3 µM |  |
| Cc1sc2nc3n(c(=O)c2c1C)CC/C3=C/c1cccc2ccccc12 | > 10 µM |  | IC50 (HEPG2TOX_HILL_SLOPE 0.688, HEPG2TOX_R_SQUARED 0.114, PBLUC_HILL_SLOPE 1.25, PBLUC_R_SQUARED 0.514, read-out: LUCIFERASE INFECTION ASSAY - IC50): 3 µM |
| CCCCNC(=O)c1c(NC(=O)c2ccc(F)cc2F)nc2ccc(C)cn12 | 3.01 µM |  | IC50 (FFLUC_HILL_SLOPE 10.6, FFLUC_R_SQUARED 0.36, HEPG2TOX_HILL_SLOPE 2.09, HEPG2TOX_R_SQUARED 0.949, PBLUC_HILL_SLOPE 14.8, PBLUC_R_SQUARED 0.468, read-out: LUCIFERASE INFECTION ASSAY - IC50): 2.6 µM |
| O=C(N/N=C/c1cc(Cl)cc(Cl)c1O)N/N=C/c1cc(Cl)cc(Cl)c1O | > 7.57 µM | > 7.57 µM |  |
| COc1ccc(C2NC(=O)NC(c3ccccc3)=C2c2nc3ccccc3s2)cc1OCc1ccccc1 (stereo not drawn) | > 10 µM | 9.63 µM |  |
| Fc1ccc(CSc2nc(CSc3ccc(Cl)cc3)cc(Sc3ccc(Cl)cc3)n2)cc1 | > 6.35 µM |  | IC50 (FFLUC_HILL_SLOPE 2.29, FFLUC_R_SQUARED 0.432, read-out: LUCIFERASE INFECTION ASSAY - IC50): > 6.35 µM |
| CN(C)CCNc1nc(Oc2cccc3ccccc23)c2sccc2n1 | > 9.05 µM |  | IC50 (PBLUC_HILL_SLOPE 11.6, PBLUC_R_SQUARED 0.0493, read-out: LUCIFERASE INFECTION ASSAY - IC50): 8.94 µM |
| c1csc(-c2cnc3ccc(-c4cccc5ncccc45)nn23)c1 | 5.26 µM |  | IC50 (HEPG2TOX_HILL_SLOPE 3.19, HEPG2TOX_R_SQUARED 0.792, PBLUC_HILL_SLOPE 2.95, PBLUC_R_SQUARED 0.78, read-out: LUCIFERASE INFECTION ASSAY - IC50): 2.49 µM |
| COc1cc2c(cc1OC)C(c1cccs1)N(CC(=O)Nc1cc([N+](=O)[O-])ccc1C)CC2 (stereo not drawn) | 2.62 µM |  | IC50 (FFLUC_HILL_SLOPE 11.9, FFLUC_R_SQUARED 0.176, HEPG2TOX_HILL_SLOPE 0.633, HEPG2TOX_R_SQUARED 0.848, PBLUC_HILL_SLOPE 2.15, PBLUC_R_SQUARED 0.479, read-out: LUCIFERASE INFECTION ASSAY - IC50): 0.944 µM |
| CNC(=O)c1cccc(-c2cc(C3(CNc4ccccc4F)CC3)ccn2)c1 | > 10 µM | > 10 µM |  |
| CCN(CC)C(=O)COC(=O)c1ccc2c(c1)C(=O)N(CCC(C)C)C2=O | > 10 µM | > 10 µM |  |
| CC(C)S(=O)(=O)c1csc(NC(=O)Nc2cccc(Cl)c2)c1 | > 9.2 µM |  | IC50 (PBLUC_HILL_SLOPE 17.1, PBLUC_R_SQUARED 0.0949, read-out: LUCIFERASE INFECTION ASSAY - IC50): 8.62 µM |
| Cn1ccc2cc(-c3cnc4cnc(-c5cccc(C(=O)NCCO)c5)cn34)ccc21 | 3.63 µM |  | IC50 (HEPG2TOX_HILL_SLOPE 4.1, HEPG2TOX_R_SQUARED 0.752, PBLUC_HILL_SLOPE 9.77, PBLUC_R_SQUARED 0.277, read-out: LUCIFERASE INFECTION ASSAY - IC50): 2.9 µM |
| Cc1ccc(S(=O)(=O)Nc2cccc(C(=O)NN(C)c3ccccc3)c2)cc1F | > 10 µM | > 10 µM |  |
| O=C(c1c[nH]c(-c2ccnc(N3CCCC3)c2)c1)c1ccccc1O | 7.71 µM |  | IC50 (HEPG2TOX_HILL_SLOPE 2.58, 1.58, HEPG2TOX_R_SQUARED 0.907, 0.987, PBLUC_HILL_SLOPE 3.48, 1.53, PBLUC_R_SQUARED 0.289, 0.786, read-out: LUCIFERASE INFECTION ASSAY - IC50): 3.06 µM |
| CCOC(=O)c1cc(C#N)c(N2CCN(C(=O)Nc3cccc(C(F)(F)F)c3)CC2)nc1C(F)(F)F | > 6.4 µM |  | IC50 (PBLUC_HILL_SLOPE 16, PBLUC_R_SQUARED 0.406, read-out: LUCIFERASE INFECTION ASSAY - IC50): 6.3 µM |
